Data as given in US4929751A, “Vinyl tricarbonyl compounds and methods of making the same” (Yale University, priority 1987, dated 1990).
pIC50: −log10 of the molar value. Like-named read-outs stand apart in the source and are kept apart here.

Columns and labels:
Test in all cases: growth inhibition of tumor cell line
Format in all cases: cell-based
DLD-1 (colon) = settings: Homo sapiens
Text: (§1) t-Butyl 2,3-dioxo-pent-4-enoate hydrate (A) was contacted with various cell lines as indicated on Table 1 hereinbelow in the column designated as "CELL" or "TUMOR". […]
(§2) Table 1 reports and illustrates the results obtained by testing t-butyl 2,3-dioxo-pent-4-enoate hydrate. The concentration of this compound found to inhibit the growth of each cell line listed under "CELL" by 50% is reported under "LOG(IC50)" as the logarithm of the concentration. The units of concentration are either molarity in which case an "M" is shown in parentheses next to the LOG(IC50) label, or micrograms per ml, in which case a "W" (for weight) is shown in parenthesis. The cell line names are grouped by disease type and the disease type names are listed on the far left.

[1] = system: H23 (nonsmall cell lung cancer)
Text: as §1, §2

P388 = settings: Mus musculus
Text: as §1, §2

[2] = system: SNB-75 (central nervous system); settings: Homo sapiens
Text: as §1, §2

HCC-2998 (colon) = settings: Homo sapiens
Text: as §1, §2

[3] = system: A549 (nonsmall cell lung cancer); settings: Homo sapiens, logarithm of the concentration inhibiting growth by 50%
Text: as §1, §2

[4] = system: EKV-X (nonsmall cell lung cancer); settings: Homo sapiens, EKVX
Text: as §1, §2

OVCAR-3 (ovarian) = settings: Homo sapiens
Text: as §1, §2

[5] = system: H82 (small cell lung cancer)
Text: as §1, §2

K562 (leukemia) = settings: Homo sapiens
Text: as §1, §2

SW620 (colon) = settings: Homo sapiens
Text: as §1, §2

OVCAR-8 (ovarian) = settings: Homo sapiens
Text: as §1, §2

LOX (melanoma) = system: LOX (melanoma)
Text: as §1, §2

SK-MEL2 (melanoma) = settings: Homo sapiens
Text: as §1, §2

[6] = system: H358 (nonsmall cell lung cancer); settings: Homo sapiens, NCI-H358
Text: as §1, §2

CCRF-CEM (leukemia) = settings: Homo sapiens
Text: as §1, §2

RPMI-7951 (melanoma) = settings: Homo sapiens
Text: as §1, §2

[7] = system: H146 (small cell lung cancer); settings: Homo sapiens, NCI-H146
Text: as §1, §2

[8] = system: H520 (nonsmall cell lung cancer); settings: Homo sapiens, NCI-H520
Text: as §1, §2

UO-31 (renal) = settings: Homo sapiens, logarithm of the concentration inhibiting growth by 50%
Text: as §1, §2

[9] = system: H125 (nonsmall cell lung cancer); settings: Homo sapiens, NCI-H125
Text: as §1, §2

[10] = system: H69 (small cell lung cancer)
Text: as §1, §2

[11] = system: H322 (nonsmall cell lung cancer); settings: NCI-H322
Text: as §1, §2

A2780 (ovarian) = settings: Homo sapiens
Text: as §1, §2

CAKI-1 (renal) = settings: Homo sapiens
Text: as §1, §2

[12] = system: SNB-19 (central nervous system); settings: Homo sapiens
Text: as §1, §2

[13] = logarithm of the concentration inhibiting growth by 50%, read-out: LOG(IC50) (converted)

IC90 (DLD-1 (colon)): 187 µM
IC50 (DLD-1 (colon); [13]): 39.8 µM
pIC50 (DLD-1 (colon); read-out: IC-50 MEAN): 4.42
IC50 ([1]; H23, logarithm of the concentration inhibiting growth by 50%, read-out: LOG(IC50) (converted)): 50.1 µM
IC90 ([1]; Homo sapiens, NCI-H23): 197 µM
pIC50 ([1]; Homo sapiens, NCI-H23, read-out: IC-50 MEAN): 4.28
IC90 (P388): 248 µM
IC50 (P388; [13]): 100 µM
pIC50 (P388; read-out: IC-50 MEAN): 3.94
IC90 [2]: 231 µM
IC50 [2, 13]: 79.4 µM
pIC50 ([2]; read-out: IC-50 MEAN): 4.09
pIC50 (HCC-2998 (colon); HCC 2998, HCC2998, logarithm of the concentration inhibiting growth by 50%, read-out: LOG(IC50)): < 4.30
pIC50 (HCC-2998 (colon); HCC-2998, read-out: IC-50 MEAN): 4.28
pIC50 [3]: < 3.60
IC50 [4, 13]: 200 µM
pIC50 ([4]; read-out: IC-50 MEAN): 3.65
IC90 (OVCAR-3 (ovarian)): 270 µM
IC50 (OVCAR-3 (ovarian); [13]): 100 µM
pIC50 (OVCAR-3 (ovarian); read-out: IC-50 MEAN): 4.02
IC50 ([5]; H82, logarithm of the concentration inhibiting growth by 50%, read-out: LOG(IC50) (converted)): 39.8 µM
IC90 ([5]; Homo sapiens, NCI-H82): 172 µM
pIC50 ([5]; Homo sapiens, NCI-H82, read-out: IC-50 MEAN): 4.44
IC90 (K562 (leukemia)): 225 µM
IC50 (K562 (leukemia); [13]): 100 µM
pIC50 (K562 (leukemia); read-out: IC-50 MEAN): 4.04
IC90 (SW620 (colon); SW-620): 234 µM
IC50 (SW620 (colon); SW-620, logarithm of the concentration inhibiting growth by 50%, read-out: LOG(IC50) (converted)): 63.1 µM
pIC50 (SW620 (colon); SW-620, read-out: IC-50 MEAN): 4.24
IC90 (OVCAR-8 (ovarian)): 263 µM
IC50 (OVCAR-8 (ovarian); [13]): 126 µM
pIC50 (OVCAR-8 (ovarian); read-out: IC-50 MEAN): 3.94
IC90 (LOX (melanoma)): 258 µM
IC50 (LOX (melanoma); [13]): 100 µM
pIC50 (LOX (melanoma); read-out: IC-50 MEAN): 3.99
IC90 (SK-MEL2 (melanoma); SK-MEL-2): 174 µM
IC50 (SK-MEL2 (melanoma); SK-MEL-2, logarithm of the concentration inhibiting growth by 50%, read-out: LOG(IC50) (converted)): 79.4 µM
pIC50 (SK-MEL2 (melanoma); SK-MEL-2, read-out: IC-50 MEAN): 4.13
IC50 ([6]; H358, logarithm of the concentration inhibiting growth by 50%, read-out: LOG(IC50) (converted)): 158 µM
pIC50 ([6]; read-out: IC-50 MEAN): 3.81
IC50 (CCRF-CEM (leukemia); CCRF-CE, logarithm of the concentration inhibiting growth by 50%, read-out: LOG(IC50) (converted)): 7.94 µM
pIC50 (CCRF-CEM (leukemia); read-out: IC-50 MEAN): 5.09
IC90 (RPMI-7951 (melanoma)): 178 µM
IC50 (RPMI-7951 (melanoma); RPMI-79, logarithm of the concentration inhibiting growth by 50%, read-out: LOG(IC50) (converted)): 79.4 µM
pIC50 (RPMI-7951 (melanoma); read-out: IC-50 MEAN): 4.12
IC50 ([7]; H146, logarithm of the concentration inhibiting growth by 50%, read-out: LOG(IC50) (converted)): 126 µM
pIC50 ([7]; read-out: IC-50 MEAN): 3.91
IC50 ([8]; H520, logarithm of the concentration inhibiting growth by 50%, read-out: LOG(IC50) (converted)): 100 µM
pIC50 ([8]; read-out: IC-50 MEAN): 3.98
pIC50 (UO-31 (renal)): < 3.60
IC50 ([9]; H125, logarithm of the concentration inhibiting growth by 50%, read-out: LOG(IC50) (converted)): 50.1 µM
pIC50 ([9]; read-out: IC-50 MEAN): 4.13
IC50 ([10]; H69, logarithm of the concentration inhibiting growth by 50%, read-out: LOG(IC50) (converted)): 100 µM
IC90 ([10]; Homo sapiens, NCI-H69): 269 µM
pIC50 ([10]; Homo sapiens, NCI-H69, read-out: IC-50 MEAN): 4.02
IC90 [11]: 246 µM
IC50 ([11]; H322, logarithm of the concentration inhibiting growth by 50%, read-out: LOG(IC50) (converted)): 50.1 µM
pIC50 ([11]; read-out: IC-50 MEAN): 4.31
IC90 (A2780 (ovarian)): 249 µM
IC50 (A2780 (ovarian); [13]): 63.1 µM
pIC50 (A2780 (ovarian); read-out: IC-50 MEAN): 4.15
IC90 (CAKI-1 (renal)): 202 µM
IC50 (CAKI-1 (renal); [13]): 50.1 µM
pIC50 (CAKI-1 (renal); read-out: IC-50 MEAN): 4.19
IC90 [12]: 243 µM
IC50 [12, 13]: 100 µM
pIC50 ([12]; read-out: IC-50 MEAN): 4.02
Compound: C=CC(=O)C(O)(O)C(=O)OC(C)(C)C [t-butyl 2,3-dioxo-pent-4-enoate hydrate]
